Experimental findings from ChEMBL document CHEMBL1129258, “Synthesis and structure-activity relationships of 2-pyridones: a novel series of potent DNA gyrase inhibitors as antibacterial agents” (J Med Chem, 1996) are described below.

Molecules are shown by their SMILES. Values after ≈ are worked out from the molar mass of the structure shown.

The target of assay [1] is T1, DNA gyrase (Escherichia coli) (UniProt P0AES6+P0AES4). Nature of the assay: In vivo efficacy against Escherichia coli JUHL after oral administration. In kind it is functional, organism-based. The settings on record: Escherichia coli K-12.
Assay [2] addresses T1, DNA gyrase (Escherichia coli). Nature of the assay: In vivo efficacy against Escherichia coli JUHL by subcutaneous administration. As to conditions: Escherichia coli K-12. In kind it is functional, organism-based.
Assay [3] has the same target. The assay can be described thus: In vitro antibacterial activity against gram-negative organism […] ATCC 13048. In kind it is functional. The settings on record: Enterobacter aerogenes.
The target is the same in assay [4]. The assay can be described thus: In vitro antibacterial against gram-negative organism Escherichia coli JUHL. In kind it is functional. The settings on record: Escherichia coli K-12.
The target is the same in assay [5]. The assay can be described thus: In vitro antibacterial activity against gram-negative organism Klebsiella pneumoniae ATCC 8045. In kind it is functional.
The nature of assay [6]: In vivo efficacy against Pseudomonas aeruginosa 5007 after subcutaneous administration. The settings on record: Pseudomonas aeruginosa, sc; read-out: ED50. In kind it is functional.
The target of assay [7] is T1, DNA gyrase (Escherichia coli). Nature of the assay: In vitro antibacterial activity against gram-negative organism Prov. stuartii CMX-640. The settings on record: Providencia stuartii. In kind it is functional.
Assay [8] in a line: In vitro antibacterial activity against gram-negative organism Pseudomonas aeruginosa 5007. In kind it is functional. The settings on record: Pseudomonas aeruginosa; read-out: MIC.
The nature of assay [9]: In vitro antibacterial activity against gram-negative organism Pseudomonas aeruginosa DPHD-2862. As to conditions: Pseudomonas aeruginosa; read-out: MIC. In kind it is functional.
Assay [10] addresses T2, DNA gyrase (Staphylococcus aureus) (UniProt P0A0K8+P20831). The assay can be described thus: In vitro antibacterial activity against gram-positive organism Staphylococcus aureus 1775. In kind it is functional.
The target of assay [11] is T2, DNA gyrase (Staphylococcus aureus). The assay can be described thus: In vitro antibacterial activity against gram-positive organism Staphylococcus aureus ATCC 6538p. It counts as functional.
Assay [12] has the same target. The assay can be described thus: In vitro antibacterial activity against gram-positive organism Staphylococcus aureus NCTC-10649M. In kind it is functional.
The target of assay [13] is T1, DNA gyrase (Escherichia coli). Nature of the assay: In vitro antibacterial activity against gram-positive organism Streptococcus bovis A-5169. In kind it is functional. As to conditions: Streptococcus equinus.
In assay [14] the target is T2, DNA gyrase (Staphylococcus aureus). Nature of the assay: In vivo efficacy against Staphylococcus aureus NCTC-10649M after oral administration. In kind it is functional, organism-based.
The target is the same in assay [15]. The assay can be described thus: In vivo efficacy against Staphylococcus aureus NCTC-10649M after subcutaneous administration. In kind it is functional, organism-based.
In assay [16] the target is T1, DNA gyrase (Escherichia coli). The assay can be described thus: In vitro antibacterial activity against gram-positive organism Enterococcus faecium ATCC 8043. In kind it is functional.
The subject of assay [17] is Pseudomonas aeruginosa. The assay can be described thus: In vivo efficacy against Pseudomonas aeruginosa 5007 following p.o. administration.
Assay [18] relates to Streptococcus pneumoniae. Nature of the assay: In vivo efficacy against Strep. administered. As to conditions: Streptococcus pneumoniae; read-out: ED50. In kind it is functional.
For assay [19], the system named is Streptococcus pyogenes. Nature of the assay: In vitro antibacterial activity against gram-positive organism Streptococcus pyogenes EES61. In kind it is functional.
Assay [20] concerns Streptococcus pneumoniae. Nature of the assay: In vivo efficacy against Strep. administration. It counts as functional.
Assay [21] deals with T1, DNA gyrase (Escherichia coli). The settings on record: Escherichia coli K-12.
Description: Concentration which causes 50% of the gyrase (Escherichia coli H560)-mediated maximal DNA cleavage.
The subject of assay [22] is Enterococcus faecalis. The assay can be described thus: Inhibitory activity against enterococcus faecalis Van B. It counts as functional.
The subject of assay [23] is Enterococcus faecium. Nature of the assay: Inhibitory activity against enterococcus faecium Van A. In kind it is functional.
Where [24] appears, read: Streptococcus pyogenes, read-out: MIC.
[25] abbreviates: Streptococcus pneumoniae, read-out: ED50.

T2 sequence (P0A0K8 2-644 limits assumed): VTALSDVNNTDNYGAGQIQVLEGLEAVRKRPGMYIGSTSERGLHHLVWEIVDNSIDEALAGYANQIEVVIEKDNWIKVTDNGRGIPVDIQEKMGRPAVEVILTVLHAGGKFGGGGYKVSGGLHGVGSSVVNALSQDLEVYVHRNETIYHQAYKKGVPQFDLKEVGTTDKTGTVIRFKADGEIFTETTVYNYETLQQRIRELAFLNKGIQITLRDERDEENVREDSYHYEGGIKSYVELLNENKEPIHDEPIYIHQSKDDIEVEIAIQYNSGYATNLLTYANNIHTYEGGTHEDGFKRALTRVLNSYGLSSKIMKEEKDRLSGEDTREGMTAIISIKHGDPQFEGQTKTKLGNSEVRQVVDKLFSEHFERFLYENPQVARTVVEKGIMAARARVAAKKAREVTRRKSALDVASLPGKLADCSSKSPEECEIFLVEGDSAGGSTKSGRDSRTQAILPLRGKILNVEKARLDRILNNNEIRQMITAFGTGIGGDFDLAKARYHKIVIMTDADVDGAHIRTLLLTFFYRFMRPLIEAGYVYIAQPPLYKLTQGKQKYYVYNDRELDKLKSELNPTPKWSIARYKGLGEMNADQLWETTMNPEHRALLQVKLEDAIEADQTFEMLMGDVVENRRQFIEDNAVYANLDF
T2 sequence (P20831 whole entry partner): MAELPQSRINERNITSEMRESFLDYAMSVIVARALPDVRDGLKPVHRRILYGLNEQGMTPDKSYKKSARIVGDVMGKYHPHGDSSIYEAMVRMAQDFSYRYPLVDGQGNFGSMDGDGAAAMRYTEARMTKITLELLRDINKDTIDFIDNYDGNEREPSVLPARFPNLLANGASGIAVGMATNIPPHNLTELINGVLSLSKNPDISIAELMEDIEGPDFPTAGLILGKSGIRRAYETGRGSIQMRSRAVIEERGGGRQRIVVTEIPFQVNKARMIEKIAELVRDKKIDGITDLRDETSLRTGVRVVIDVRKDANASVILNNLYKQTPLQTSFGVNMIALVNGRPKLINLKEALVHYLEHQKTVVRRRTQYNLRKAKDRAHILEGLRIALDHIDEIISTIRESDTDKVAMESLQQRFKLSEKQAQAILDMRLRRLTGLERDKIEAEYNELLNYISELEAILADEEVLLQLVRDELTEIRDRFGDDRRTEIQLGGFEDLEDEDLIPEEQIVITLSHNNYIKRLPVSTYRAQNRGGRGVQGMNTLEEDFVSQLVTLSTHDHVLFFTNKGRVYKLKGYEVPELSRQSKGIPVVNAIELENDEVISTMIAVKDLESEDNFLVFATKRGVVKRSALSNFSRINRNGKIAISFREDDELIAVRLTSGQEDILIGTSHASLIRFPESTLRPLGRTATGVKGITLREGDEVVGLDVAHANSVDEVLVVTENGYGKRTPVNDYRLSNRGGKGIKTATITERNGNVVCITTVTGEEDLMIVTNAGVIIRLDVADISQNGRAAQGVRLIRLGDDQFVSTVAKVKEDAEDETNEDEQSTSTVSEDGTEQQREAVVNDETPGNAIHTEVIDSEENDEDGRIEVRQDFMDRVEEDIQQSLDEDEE

On to `Cc1c(N2C[C@H]3CCN[C@H]3C2)c(F)cn2c(=O)c(C(=O)O)cc(C3CC3)c12` (single isomer, unassigned), for which the ED50 in assay [1] came out at 1.1 mg/kg; in assay [2] it was 0.5 mg/kg; in assay [6] it was 5 mg/kg; in assay [14], 1.5 mg/kg; in assay [15] it was 0.6 mg/kg; in assay [17], 17.9 mg/kg. For the same compound, the MIC in [3] was determined as 0.05 µg/mL (≈ 0.135 µM); in [4] it was 0.05 µg/mL (≈ 0.135 µM); in assay [5] it was 0.02 µg/mL (≈ 0.0538 µM); in assay [7], 0.39 µg/mL (≈ 1.05 µM); in [8], 0.39 µg/mL (≈ 1.05 µM); in [9] it was 6.2 µg/mL (≈ 16.7 µM). The MIC in [10] is 6.2 µg/mL (≈ 16.7 µM); in assay [11], 0.05 µg/mL (≈ 0.135 µM); in assay [12], 0.1 µg/mL (≈ 0.269 µM); in assay [13], 0.39 µg/mL (≈ 1.05 µM); in assay [16], 0.2 µg/mL (≈ 0.538 µM).
On to `Cc1c(N2C[C@H]3CCCN[C@H]3C2)c(F)cn2c(=O)c(C(=O)O)cc(C3CC3)c12` (single isomer, unassigned), for which the ED50 in [2] is more than 1 mg/kg; in assay [6] it was more than 8 mg/kg; in assay [18] it was more than 8 mg/kg; in assay [14] it was 29.3 mg/kg; in [15], 6.1 mg/kg; in assay [20] (setting [25]), 32.2 mg/kg. The same compound had an ED50 in [17] of more than 50 mg/kg. The MIC in assay [3] turned out to be 0.05 µg/mL (≈ 0.13 µM); in assay [4], 0.05 µg/mL (≈ 0.13 µM); in assay [5], 0.005 µg/mL (≈ 0.013 µM); in [7], 1.56 µg/mL (≈ 4.05 µM); in assay [8], 0.78 µg/mL (≈ 2.02 µM); in [9] it was 12.5 µg/mL (≈ 32.4 µM). The MIC in [10] turned out to be 0.78 µg/mL (≈ 2.02 µM); in assay [11], 0.05 µg/mL (≈ 0.13 µM); in assay [12] it was 0.05 µg/mL (≈ 0.13 µM); in [13], 0.05 µg/mL (≈ 0.13 µM); in [19] (setting [24]), 0.05 µg/mL (≈ 0.13 µM); in assay [16] it was 0.1 µg/mL (≈ 0.259 µM).
As to `Cc1c(N2C[C@@H]3CCCN[C@@H]3C2)c(F)cn2c(=O)c(C(=O)O)cc(C3CC3)c12` (stereo in doubt; (S,S)45n) [listing 1 of 2 here], the ED50 was 1 mg/kg in assay [1], 2.5 mg/kg in assay [14], 0.5 mg/kg in [15] and 21.4 mg/kg in assay [17]. Moreover, the MIC is 0.02 µg/mL (≈ 0.0519 µM) in assay [3]; 0.005 µg/mL (≈ 0.013 µM) in assay [4]; 0.01 µg/mL (≈ 0.0259 µM) in [5]; 0.39 µg/mL (≈ 1.01 µM) in assay [7]; 0.39 µg/mL (≈ 1.01 µM) in [10]; 0.01 µg/mL (≈ 0.0259 µM) in assay [11]. Besides, the MIC in assay [12] stood at 0.01 µg/mL (≈ 0.0259 µM); in assay [13] it was 0.05 µg/mL (≈ 0.13 µM); in [16], 0.1 µg/mL (≈ 0.259 µM).
With `CC(NC1CCN(c2nc3c(-c4ccc(F)cc4F)cc(C(=O)O)c(=O)n3cc2F)C1)C(=O)O` (centres undefined), the median effective dose (ED50) in assay [1] is 16.6 mg/kg; in assay [2], less than 2.5 mg/kg; in assay [6], 34.4 mg/kg; in [14], 14.4 mg/kg; in assay [15], 2.7 mg/kg; in [20], 79.8 mg/kg. The ED50 in assay [20] (setting [25]) was found to be 164 mg/kg; in assay [17], 68.8 mg/kg.
On to `Cc1c(N2CC[C@H]([C@@H](C)N)C2)c(F)cn2c(=O)c(C(=O)O)cc(C3CC3)c12`, for which the MIC in assay [3] was found to be 0.02 µg/mL (≈ 0.0536 µM); in [4], 0.01 µg/mL (≈ 0.0268 µM); in assay [5], 0.01 µg/mL (≈ 0.0268 µM); in assay [7], 0.39 µg/mL (≈ 1.04 µM); in [8], 0.2 µg/mL (≈ 0.536 µM); in assay [9], 3.1 µg/mL (≈ 8.3 µM). For the same compound, the MIC was 0.2 µg/mL (≈ 0.536 µM) in [10]; 0.002 µg/mL (≈ 0.00536 µM) in [11]; 0.002 µg/mL (≈ 0.00536 µM) in [12]; 0.005 µg/mL (≈ 0.0134 µM) in assay [13]; less than 0.001 µg/mL in assay [19] (setting [24]); 0.01 µg/mL (≈ 0.0268 µM) in assay [16]. Moreover, the figures for the ED50 in assay [6], in [14] and in assay [15] were more than 8 mg/kg, 1.2 mg/kg and 0.3 mg/kg, respectively. For the same compound, the CC50 in [21] stood at 0.6 µg/mL (≈ 1.61 µM).
On to `Cc1c(N2CCC(n3cccc3)C2)c(F)cn2c(=O)c(C(=O)O)cc(C3CC3)c12` (centres undefined), for which the MIC in assay [22] worked out at 0.03 µg/mL (≈ 0.0759 µM); in assay [3] it was 0.39 µg/mL (≈ 0.986 µM); in [23] it was 0.5 µg/mL (≈ 1.26 µM); in assay [4] it was 0.1 µg/mL (≈ 0.253 µM); in [5], 0.05 µg/mL (≈ 0.126 µM); in [7], 1.56 µg/mL (≈ 3.95 µM). Also, the MIC in assay [8] came out at 1.56 µg/mL (≈ 3.95 µM); in assay [9], 25 µg/mL (≈ 63.2 µM); in [10], 0.39 µg/mL (≈ 0.986 µM); in [11], 0.02 µg/mL (≈ 0.0506 µM); in [12], 0.01 µg/mL (≈ 0.0253 µM); in [13], 0.2 µg/mL (≈ 0.506 µM). Besides, the MIC in [19] (setting [24]) and in assay [16] was 0.1 µg/mL (≈ 0.253 µM) in each case. Further, the CC50 in [21] was 0.04 µg/mL (≈ 0.101 µM).
For the compound `Cc1c(N2C[C@@H]3CCCN[C@@H]3C2)c(F)cn2c(=O)c(C(=O)O)cc(C3CC3)c12` (stereo in doubt; (S,S)45n) [listing 2 of 2 here], the 50% effective dose (ED50) in assay [6] was more than 8 mg/kg; in assay [18] it was 2.2 mg/kg; in assay [20], 3.6 mg/kg. The results for the MIC in assay [8], in assay [9] and in [19] were 0.2 µg/mL (≈ 0.519 µM), 3.1 µg/mL (≈ 8.04 µM) and 0.05 µg/mL (≈ 0.13 µM), respectively.

As usually defined, the ED50 is the dose that gives a 50% effect, or the effect in half of the subjects.
